Laboratory results as given in patent US20140193802A1, “IDENTIFICATION OF AN ALTERED THERAPEUTIC SUSCEPTIBILITY TO ANTI-HCMV COMPOUNDS AND OF A RESISTANCE AGAINST ANTI-HCMV COMPOUNDS” (priority 2012, published 2014).
“And” between values parts separate entries of the source, which are not always exact repeats. Identical values can stand only once. Like-named read-outs stand apart in the source and are kept apart here.

What was measured:
Assay type in all cases: cell-based, human cytomegalovirus (HCMV)
RV-HG (wt-HCMV) = assay: HCMV fluorescence reduction assay (GFP-RA); settings: Human betaherpesvirus 5
Description: (§1) HCMV Fluorescence Reduction Assay (GFP-RA)
(§2) The susceptibilities of recombinant HCMV laboratory strains expressing GFP were determined by a GFP-based fluorescence reduction assay. For standard assays, 1.5×10^4 NHDF cells/well were cultured in black 96-well plates (Greiner Bio-One, Germany) and infected with either HCMV-GFP (MOI, 0.1) or RV-HG (MOI, 0.2 to 0.5). After virus adsorption, the virus inoculum was replaced with 200 μl fresh medium. Thereafter, 100 μl medium containing the test compounds was added to wells of horizontal row G, followed by serial 3-fold dilutions up to row A. All drug concentrations were tested at least in duplicate. Wells of the horizontal row H served as the virus control. Plates were incubated at 37° C. for 7 days. The medium was replaced by 200 μl PBS, and GFP units (GFPU) were determined by a charge-coupled-device-camera-based fluorescence detector (FluoBox; Bayer Technology Services GmbH, Leverkusen, Germany), which captures 96 images simultaneously. Drug effects were calculated as a percentage of reduction in GFPU in the presence of each drug concentration compared to the GFPU determined in the absence of drug. EC50 and EC90 values (drug concentrations producing 50% and 90% reduction in GFPU) were calculated using nonlinear regression curve fit with a variable slope. GraphPad Prism 3.02 or 4.0 software (GraphPad Software Inc., La Jolla, Calif.) was used for all analyses.
(§3) The HCMV AD169-derived bacterial artificial chromosome (BAC) pHG served as the backbone for the construction of the mutant viruses. The markerless introduction of point mutations into pHG was done using a two-step recombination protocol according to the en passant method. Briefly, a recombination fragment containing the I-SceI-AphAI cassette from plasmid pEPKan-S was obtained by PCR using primers containing ˜60 bp of homology to the intended integration site in ORF UL56 of BAC pHG and ˜20 bp specific for pEPKan-S. This fragment was electroporated into Escherichia coli GS1783 that harbored the pHG BAC. […] After successful kanamycin selection, all non-HCMV sequences were removed by an intrabacterial ISceI digest and a subsequent second Red recombination, resulting in the scarless repair of the mutated UL56 gene in the background of BAC pHG. The integrity of the generated BACs was confirmed by restriction enzyme digestion and sequencing. To reconstitute virus mutants, the recombinant BACs were transfected into permissive MRC5 cells. At least two independent virus clones per mutation were generated and evaluated.

RV-HG UL56-C325Y = assay: GFP-RA, marker transfer mutant; settings: for EC50: Human betaherpesvirus 5
Description: as §1, §2, §3

RV-HG UL56-V231L = assay: GFP-RA, marker transfer mutant; settings: for EC50: Human betaherpesvirus 5, RV-HG UL56-V231L, fluorescence reduction assay, mean ± SD, read-out: EC50
Description: as §1, §2, §3

RV-HG UL56-V236M = assay: GFP-RA, marker transfer mutant; settings: for EC50: Human betaherpesvirus 5
Description: as §1, §2, §3

RV-HG UL56-L241P/R369S = assay: GFP-RA, marker transfer mutant; settings: for EC50: Human betaherpesvirus 5, RV-HG UL56-L241P/R369S, fluorescence reduction assay, mean ± SD, read-out: EC50
Description: as §1, §2, §3

RV-HG UL56-R369S = assay: GFP-RA, marker transfer mutant; settings: for EC50: Human betaherpesvirus 5, RV-HG UL56-R369S, fluorescence reduction assay, mean ± SD, read-out: EC50
Description: as §1, §2, §3

RV-HG UL56-L241P = assay: GFP-RA, marker transfer mutant; settings: for EC50: Human betaherpesvirus 5
Description: as §1, §2, §3

RV-HG UL56-R369M = assay: GFP-RA, marker transfer mutant; settings: for EC50: Human betaherpesvirus 5, RV-HG UL56-R369M, fluorescence reduction assay, mean ± SD, read-out: EC50
Description: as §1, §2, §3

Row | Compound | EC50 (RV-HG (wt-HCMV)) [nM] | EC50 (RV-HG UL56-C325Y) [nM] | EC50 (RV-HG UL56-V231L) [nM] | EC50 (RV-HG UL56-V236M) [nM] | EC50 (RV-HG UL56-L241P/R369S) [nM] | EC50 (RV-HG UL56-R369S) [nM] | EC50 (RV-HG UL56-L241P) [nM] | EC50 (RV-HG UL56-R369M) [nM] | EC50 (RV-HG (wt-HCMV); RV-HG (wt-HCMV), fluorescence reduction assay, mean ± SD, read-out: EC50) [nM] | EC50 (RV-HG UL56-C325Y; RV-HG UL56-C325Y, fluorescence reduction assay, mean ± SD, read-out: EC50) [nM] | Resistance index (RI) = EC50 indicated RV-HG mutant/EC50 RV-HG wt (RV-HG UL56-C325Y; RV-HG UL56-C325Y vs RV-HG wt) | Resistance index (RI) = EC50 indicated RV-HG mutant/EC50 RV-HG wt (RV-HG UL56-V231L; RV-HG UL56-V231L vs RV-HG wt) | EC50 (RV-HG UL56-V236M; RV-HG UL56-V236M, fluorescence reduction assay, mean ± SD, read-out: EC50) [nM] | Resistance index (RI) = EC50 indicated RV-HG mutant/EC50 RV-HG wt (RV-HG UL56-V236M; RV-HG UL56-V236M vs RV-HG wt) | Resistance index (RI) = EC50 indicated RV-HG mutant/EC50 RV-HG wt (RV-HG UL56-L241P/R369S; RV-HG UL56-L241P/R369S vs RV-HG wt) | Resistance index (RI) = EC50 indicated RV-HG mutant/EC50 RV-HG wt (RV-HG UL56-R369S; RV-HG UL56-R369S vs RV-HG wt) | EC50 (RV-HG UL56-L241P; RV-HG UL56-L241P, fluorescence reduction assay, mean ± SD, read-out: EC50) [nM] | Resistance index (RI) = EC50 indicated RV-HG mutant/EC50 RV-HG wt (RV-HG UL56-L241P; RV-HG UL56-L241P vs RV-HG wt) | Resistance index (RI) = EC50 indicated RV-HG mutant/EC50 RV-HG wt (RV-HG UL56-R369M; RV-HG UL56-R369M vs RV-HG wt)
1 | Nc1nc(O)c2ncn(COC(CO)CO)c2n1 [Ganciclovir] | 2210 ± 990 | 2110 ± 710 | 720 ± 240 | 1560 ± 330 | 2860 ± 1160 | 1960 ± 1090 | 2110 ± 770 | 1260 ± 640 | – | – | – | – | – | – | – | – | – | – | –
2 | COc1cccc(N2CCN(C3=Nc4c(F)cccc4[C@H](CC(=O)O)N3c3cc(C(F)(F)F)ccc3OC)CC2)c1 [Letermovir, (S)-{8-fluoro-2-[4-(3-methoxyphenyl)-1-piperazinyl]-3-[2-methoxy-5-(trifluoromethyl)phenyl]-3,4-dihydro-4-quinazolinyl}acetic acid] | – | – | 20 ± 4.7 | – | 5260 | 140 ± 70 | – | 40 ± 15 | 3 ± 1.2 | 26400 ± 8500 | 8910 | 5 | 70 ± 20 | 24 | 1776 | ~38 and 48 | 680 ± 240 | ~160 and 221 | 13
